Legend:
[1] = target: T1, human glucocorticoid receptor (GR) (Homo sapiens, UniProt P04150); experiment: Functional assay with recombinant receptor (hGR4) and reporter (MLUC3) viruses in 293 cells, luciferase activity; conditions: hGR4 + MLUC3 coinfected 293 cells; 22 hours after infection
T1 sequence (P04150 1-777): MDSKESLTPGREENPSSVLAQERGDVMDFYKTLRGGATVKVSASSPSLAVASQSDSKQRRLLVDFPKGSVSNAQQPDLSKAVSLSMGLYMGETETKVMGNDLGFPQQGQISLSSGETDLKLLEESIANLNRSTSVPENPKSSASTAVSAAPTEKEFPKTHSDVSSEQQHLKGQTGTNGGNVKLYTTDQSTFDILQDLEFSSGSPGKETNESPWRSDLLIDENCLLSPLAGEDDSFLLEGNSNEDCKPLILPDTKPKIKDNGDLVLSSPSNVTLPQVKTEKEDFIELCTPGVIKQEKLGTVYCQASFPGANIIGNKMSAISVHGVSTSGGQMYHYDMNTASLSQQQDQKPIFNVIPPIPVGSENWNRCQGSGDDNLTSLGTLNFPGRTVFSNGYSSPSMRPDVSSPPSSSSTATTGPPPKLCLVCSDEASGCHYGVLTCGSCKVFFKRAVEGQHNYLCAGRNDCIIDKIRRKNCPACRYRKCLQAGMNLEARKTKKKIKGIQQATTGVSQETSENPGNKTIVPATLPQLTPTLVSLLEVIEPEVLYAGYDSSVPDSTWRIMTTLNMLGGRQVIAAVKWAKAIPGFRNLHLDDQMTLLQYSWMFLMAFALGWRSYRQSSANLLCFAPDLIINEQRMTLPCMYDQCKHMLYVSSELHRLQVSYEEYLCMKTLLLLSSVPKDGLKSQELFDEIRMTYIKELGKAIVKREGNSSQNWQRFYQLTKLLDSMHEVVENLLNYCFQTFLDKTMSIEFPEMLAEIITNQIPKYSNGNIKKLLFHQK
Text: A reporter virus (MLUC3; also variously referred to as Ad3MLUC, MpCV3MTV-LUC-Ad and ADMLUC) was constructed containing the mouse mammary tumor virus LTR linked to the firefly luciferase cDNA with an SV40 polyadenylation signal (Hollenberg, et al., Cell 55, 899 (1988)) similar to the receptor virus hGR4 above. The two viruses, hGR4 and MLUC3, were coinfected into 293 cells growing in DMEM suplemented with 10% charcoal adsorbed fetal calf serum ±10^-7 M dexamethasone (dex), and cellular extracts were prepared by Triton X-100™ brand non-ionic surfactant lysis at 22 hours after infection. (Williams, et al., Anal. Biochem 176, 28 (1989)) These were tested for luciferase activity by incubating with ATP and luciferin in a suitable buffer system. (de Wet, et al., Mol. Cell Biol. 7, 725 (1987)). Light liberated in this reaction was measured using a luminometer.

[2] = target: T1, human glucocorticoid receptor (GR); experiment: Detection of glucocorticoids: cells infected with hGR4 and MLUC3, luciferase activity; type: cell-based; design: expressed in transfected cells; host or cells: 293 cells (human embryonic kidney) infected with recombinant adenovirus hGR4 and reporter virus MLUC3; A3: 293 or CV-1 cells; conditions: 10^-8 M cortisol, 18 hours p.i., read-out: Share of the maximal transcriptional response
Procedure: Cells were infected with hGR4 and MLUC3 recombinant adenoviruses in the presence of varying concentrations of cortisol from 10^-11 M to 10^-5 M in 3-fold dilution steps. At 18 hours p.i., lysates were prepared and luciferase activity was measured. Approximately 10% of the maximal transcriptional response was detected at 10^-8 M cortisol. Since standard assay volumes are 200 μl per well in a 96 sample microliter dish, this represents about 2×10^-12 mole or about 0.6 ng of cortisol.

[3] = target: T1, human glucocorticoid receptor (GR); experiment: Luciferase-based coinfection assay with unpurified virus stocks in 293 or CV-1 cells; design: expressed in transfected cells; host or cells: 293 cells (human embryonic kidney) infected with recombinant adenovirus hGR4 and reporter virus MLUC3; A3: 293 or CV-1 cells; conditions: 293 or CV-1 cells infected with both stocks, ten PFU/cell; lysates at twenty-two hours after infection
Text: With the unpurified virus stocks, their ability to measure hormone-responsiveness was accomplished using various adrenocorticosteroid, in the luciferase based assay. Assuming that the titer of the viral stocks was approximately 10^8 PFU/ML, either 293 cells or CV-1 cells that have low endogenous GR levels were infected with both stocks at a multiplicity of infection equal to ten PFU/cell. At twenty-two hours after infection (empirically determined to be the time when maximal GR synthesis occurs by Western blot measurement of protein), cell lysates were prepared and tested for luciferase activity.
Within the concentration range of 10^-10 and 10^-5 M of corticosteroids, dose response curves were generated that appeared by all qualitative criteria to resemble the binding activities of those glucocorticoids for the receptor protein.

C[C@]12CCC(=O)C=C1CC[C@@H]1[C@@H]2[C@@H](O)C[C@]2(C=O)[C@@H](C(=O)CO)CC[C@@H]12 [aldosterone]
Luciferase response to dex mimicked by other adrenocorticosteroids [1]: mimicked

C[C@]12C[C@H](O)[C@H]3[C@@H](CCC4=CC(=O)CC[C@@]43C)[C@@H]1CC[C@@H]2C(=O)CO [corticosterone]
Luciferase response to dex mimicked by other adrenocorticosteroids [1]: mimicked

C[C@]12CCC(=O)C=C1CC[C@@H]1[C@@H]2[C@@H](O)C[C@@]2(C)[C@H]1CC[C@]2(O)C(=O)CO [cortisol]
activation at 0.01 µM [2]: ~10%
Luciferase response to dex mimicked by other adrenocorticosteroids [1]: mimicked

CC1=C(/C=C/C(C)=C/C=C/C(C)=C/C(=O)O)C(C)(C)CCC1 [retinoic acid]
Induction of luciferase activity (inducer in this system) [3]: ineffective inducers

estrogen
Induction of luciferase activity (inducer in this system) [3]: ineffective inducers
Luciferase response to dex mimicked by other adrenocorticosteroids [1]: mimicked
